Data on five molecules can be found in article PMC10076671, “Spider venom-derived peptide JZTX-14 prevents migration and invasion of breast cancer cells via inhibition of sodium channels” (Frontiers in Pharmacology, 2023).

Where a SMILES comes first, the peptide text is derived from it. Bridges are numbered along the chain shown (N, C = ends).

The subject of assay [1] is human breast cancer cells. Particulars: ref Wannous et al., 2015; cited from earlier work. An excerpt:
(§1) Voltage-gated sodium channels (Navs; VGSCs) are membrane proteins with nine isoforms responsible for the rapid upstroke of action potentials in excitable cells ([de Lera Ruiz and Kraus, 2015]). VGSCs are present in excitable and non-excitable cells, including microglia, astrocytes, immune cells, fibroblasts, and cancer cells, and play various biological roles, such as tumour cell migration and immune cell phagocytosis ([Black and Waxman, 2013]; [Roger et al., 2015]). Nav1.5, encoded by SCN5A, is an essential receptor in breast cancer growth and migration ([Rajaratinam et al., 2022]).

In assay [2] the test system is breast cancer cells. Particulars: inhibiting the PI3K/Akt/mTOR signalling pathway, ref Lim et al., 2019; cited from earlier work. The text has this:
A peptide with anticancer activity was isolated and purified from animal venom to construct a new anticancer drug library. Compared to small-molecule drugs, peptide drugs have the advantages of high selectivity and affinity for molecular targets, and it is not easy to make tumours resistant to drugs ([Wu et al., 2014]). To date, many anticancer peptides have been screened from animal venom. […] Melittin, ...

Assay [3] deals with breast cancer cell. The following applies: ref Driffort et al., 2014; cited from earlier work.
From the text: as §1

Assay [4] concerns MDA-MB-231 cells. Particulars: ref Yang et al., 2012; cited from earlier work. The text has this:
Voltage-gated sodium channels (Navs; VGSCs) are membrane proteins with nine isoforms responsible for the rapid upstroke of action potentials in excitable cells ([de Lera Ruiz and Kraus, 2015]). VGSCs are present in excitable and non-excitable cells, including microglia, astrocytes, immune cells, fibroblasts, and cancer cells, and play various biological roles, such as tumour cell migration and immune cell phagocytosis ([Black and Waxman, 2013]; [Roger et al., 2015]). Nav1.5, encoded by SCN5A, is an essential receptor in breast cancer growth and migration ([Rajaratinam et al., 2022]). […] Nav1.5, a pore-forming alpha subunit of VGSC encoded by SCN5A, is not expressed in normal breast tissue or cells but is highly expressed in the breast cancer cell line MDA-MB-231 ([Dutta et al., 2018]). Elevated Nav1.5 expression promotes cell invasion and breakdown of extracellular matrix proteins, maintains ac ... || A peptide with anticancer activity was isolated and purified from animal venom to construct a new anticancer drug library. Compared to small-molecule drugs, peptide drugs have the advantages of high selectivity and affinity for molecular targets, and it is not easy to make tumours resistant to drugs ([Wu et al., 2014]). To date, many anticancer peptides have been screened from animal venom. […] Melittin, ...

In assay [5] the test system is MDA-MB-231 cells. Particulars: strongly metastatic MDA-MB-231 cells; ref Yang et al., 2012; cited from earlier work.
From the text: as §1

The test system of assay [6] is Nav1.5. Format: cell-based. Particulars: Discussion: HEK293 cells heterologously expressing Nav1.5, 0.1 and 1 μM. On the procedure: Sodium currents in experimental cells were recorded at room temperature (22°C–25°C) using an EPC-10 patch-clamp amplifier (HEKA, Germany) in a whole-cell patch-clamp configuration. Recording pipettes were made from borosilicate glass capillaries (VWR, United States) using a PC-10 puller (Narishige, Japan). The inner solution (mM): KCl 130, NaCl 15, CaCl2 0.37, MgCl2 1 EGTA 1, HEPES 10, pH 7.2, resistance was measured as 1.8 MO. The outer solution was composed of (mM): NaCl 140, KCl 3, MgCl2 1, CaCl2 1, HEPES 10, pH 7.2. To minimize voltage errors, the series resistance compensation was set to 80%. The P/4 protocol was used to subtract the linear capacitance and leakage current. Experimental data were acquired and analyzed using the pulse fit 8.0 program (HEKA, Germany). The needed concentrations of toxin dissolved in external solution were applied to the cell surface by microinjector.
To determine the biological activity of synthetic and natural JZTX-14 on Nav1.5, we observed their effects on HEK293T cells heterologously expressing Nav1.5 using a whole-cell voltage-clamp configuration. The current traces were induced by a 50 ms depolarisation potential of −30 mV at a holding potential of −100 mV. Currents were recorded by adding 0.1 μM and 0.5 μM of JZTX-14 to the solution.

Take `CC/C=C\C/C=C\C/C=C\C/C=C\C/C=C\C/C=C\CCC(=O)O` [DHA]: in assay [1], the “Invasiveness of Nav1.5-dependent cancer cells” value is “reducing the invasiveness of Nav1.5-dependent cancer cells”; the “Nav1.5 current and NHE-1 activity” value is “inhibits Nav1.5 current and NHE-1 activity”. As for “Melittin: the main peptide component of Apis mellifera venom”, the “EGF-induced cell movement and invasion” value in assay [2] is “inhibits EGF-induced cell movement and invasion”. As for `COc1ccccc1OCC(O)CN1CCN(CC(=O)Nc2c(C)cccc2C)CC1` (stereo not shown) [Ranolazine], in assay [3], the “Nav1.5-mediated breast cancer cell invasiveness and lung colonisation” value was “inhibits Nav1.5-mediated breast cancer cell invasiveness and lung colonisation”. Regarding `O=C1NC(=O)C(c2ccccc2)(c2ccccc2)N1` [Phenytoin], the Migration and invasion entry in assay [4] was “significantly inhibiting the migration and invasion”. In addition, in assay [5], the “Transient and persistent Na+ current” value is “inhibited the transient and persistent Na^+ current”. Take `CC[C@H](C)[C@H](NC(=O)[C@@H]1CSSC[C@@H]2NC(=O)[C@@H]3CCCN3C(=O)[C@@H]3CCCN3C(=O)[C@H](CCC(N)=O)NC(=O)CNC(=O)[C@@H]3CCCN3C(=O)[C@H](Cc3c[nH]cn3)NC(=O)[C@@H]3CSSC[C@H](NC(=O)[C@H](C)NC(=O)[C@H](CC(C)C)NC(=O)CNC(=O)[C@H](CO)NC(=O)[C@H](CSSC[C@H](NC(=O)CN)C(=O)N[C@@H](CCC(N)=O)C(=O)N[C@@H](CCCCN)C(=O)N[C@@H](Cc4ccccc4)C(=O)N[C@@H](Cc4ccccc4)C(=O)N[C@@H](Cc4c[nH]c5ccccc45)C(=O)N[C@@H]([C@@H](C)O)C(=O)N3)NC2=O)C(=O)N[C@@H]([C@@H](C)O)C(=O)N[C@@H](Cc2c[nH]c3ccccc23)C(=O)N2CCC[C@H]2C(=O)N[C@@H]([C@@H](C)O)C(=O)N[C@@H](CCC(=O)O)C(=O)N[C@@H]([C@@H](C)CC)C(=O)N1)C(=O)N[C@@H](CC(C)C)C(N)=O` [natural JZTX-14] (H-GCQKFFWTCHPGQPPCCSGLACTWPTEICIL-NH2; disulfide 2-17, 9-22, 16-29): in assay [6], the “Inhibition of Nav1.5 channels (in words)” value is “significantly inhibited Nav1.5 channels in a concentration-dependent manner”.
